Read-outs that look alike come from different tables or passages of the source.
Assays:
HIV-1NL4-3 = assay: Two-drug combination anti-HIV assay in MT4 cells, MacSynergy II analysis; assay type: cell-based; set-up: Antiviral Activity Synergy volume / Antiviral Activity Antagonism volume: unit not given here
Method: (§1) This two-drug combination analysis study was performed using the Prichard and Shipman MacSynergy II three dimensional model for statistical evaluation of combination anti-HIV assays. Using a standardized microtiter plate format, each combination assay was performed in MT4 cells acutely infected with HIV-1NL4-3.
(§2) MT4 cells (obtained from the NIH AIDS Research and Reference Reagent Program) were passaged in T-75 flasks prior to use in the antiviral assay. On the day preceding the assay, the cells were split 1:2 to assure they were in an exponential growth phase at the time of infection. Total cell and viability quantification was performed using a hemacytometer and trypan blue exclusion. Cells with greater than 95% cell viability were utilized in the assay. The cells were re-suspended in tissue culture medium and added to the drug-containing microtiter plates in a volume of 110 μL and at a seeding density of 5.0×10^3 cells/well.
(§3) Combination antiviral efficacy was evaluated on three identical assay plates (i.e., triplicate measurements) that included cell control wells (cells only) and virus control wells (cells plus virus). Combination cytotoxicity was evaluated in parallel on two identical assay plates (i.e., duplicate measurements) that included cell control wells.

MT4 cells = assay: Two-drug combination cytotoxicity in uninfected MT4 cells, MacSynergy II analysis
Method: as §1, §2, §3

[1] = two-drug combination with the pivalate fumarate, HIV-1NL4-3 in MT4 cells
[2] = two-drug combination with the pivalate fumarate, MT4 cells infected with HIV-1NL4-3
[3] = two-drug combination with the pivalate fumarate, uninfected MT4 cells

COC(=O)N[C@H](C(=O)N[C@@H](Cc1ccccc1)[C@@H](O)CN(Cc1ccc(-c2ccccn2)cc1)NC(=O)[C@@H](NC(=O)OC)C(C)(C)C)C(C)(C)C [Atazanavir]
Interpretation Antiviral (HIV-1NL4-3; [1]): Additive | Antiviral Activity Antagonism volume (HIV-1NL4-3; [2]): −3.50 | Antiviral Activity Synergy volume (HIV-1NL4-3; [2]): 39.1

COc1cc2c(cc1Cc1cccc(Cl)c1F)c(=O)c(C(=O)O)cn2[C@H](CO)C(C)C [Elvitegravir]
Antiviral Activity Antagonism volume (HIV-1NL4-3; [2]): 0 | Antiviral Activity Synergy volume (HIV-1NL4-3; [2]): 67.3

C[C@H](Cn1cnc2c(N)ncnc21)OCP(=O)(O)O [Tenofovir, 9-R-[(2-phosphonomethoxy)propyl]adenine]
Cytotoxicity Antagonism volume (MT4 cells): 0/0 | Cytotoxicity Synergy volume (MT4 cells): 0/0 | Interpretation Cytotoxicity (MT4 cells; [3]): Additive | Antiviral Activity Antagonism volume (HIV-1NL4-3): 79.0/−7.08 | Antiviral Activity Synergy volume (HIV-1NL4-3): 79.0/−7.08

Tenofovir alafenamide hemifumarate [TAF]
Cytotoxicity Antagonism volume (MT4 cells; [3]): 0/0 | Cytotoxicity Synergy volume (MT4 cells; [3]): 0/0 | Interpretation Cytotoxicity (MT4 cells; [3]): Additive | Interpretation Antiviral (HIV-1NL4-3; [1]): Additive | Antiviral Activity Antagonism volume (HIV-1NL4-3; [2]): −47.1 | Antiviral Activity Synergy volume (HIV-1NL4-3; [2]): 41.2

Cc1nnc(C(=O)NC(C)(C)c2nc(C(=O)NCc3ccc(F)cc3)c(O)c(=O)n2C)o1 [Raltegravir]
Cytotoxicity Antagonism volume (MT4 cells; [3]): −4.70 | Interpretation Cytotoxicity (MT4 cells; [3]): Additive | Antiviral Activity Antagonism volume (HIV-1NL4-3): 1.61/−2.72 | Antiviral Activity Synergy volume (HIV-1NL4-3): 1.61/−2.72 | Interpretation Antiviral (HIV-1NL4-3): Additive

Cc1ccnc2c1NC(=O)c1cccnc1N2C1CC1 [Nevirapine]
Interpretation Antiviral (HIV-1NL4-3; [1]): Additive | Antiviral Activity Antagonism volume (HIV-1NL4-3; [2]): −9.09 | Antiviral Activity Synergy volume (HIV-1NL4-3; [2]): 47.6

CC(C)c1nc(CN(C)C(=O)N[C@@H](CCN2CCOCC2)C(=O)N[C@H](CC[C@H](Cc2ccccc2)NC(=O)OCc2cncs2)Cc2ccccc2)cs1 [Cobicistat]
Interpretation Antiviral (HIV-1NL4-3; [1]): Additive | Antiviral Activity Antagonism volume (HIV-1NL4-3; [2]): −6.12 | Antiviral Activity Synergy volume (HIV-1NL4-3; [2]): 0

C[C@@H]1CCO[C@H]2Cn3cc(C(=O)NCc4ccc(F)cc4F)c(=O)c(O)c3C(=O)N12 [Dolutegravir]
Interpretation Antiviral (HIV-1NL4-3; [1]): Additive | Antiviral Activity Antagonism volume (HIV-1NL4-3; [2]): −4.46 | Antiviral Activity Synergy volume (HIV-1NL4-3; [2]): 17.9

Nc1nc(=O)n([C@@H]2CS[C@H](CO)O2)cc1F [Emtricitabine]
Antiviral Activity Antagonism volume (HIV-1NL4-3; [2]): −8.75 | Antiviral Activity Synergy volume (HIV-1NL4-3; [2]): 98.8

CC(C)CN(C[C@@H](O)[C@H](Cc1ccccc1)NC(=O)O[C@H]1CO[C@H]2OCC[C@H]21)S(=O)(=O)c1ccc(N)cc1 [Darunavir]
Antiviral Activity Antagonism volume (HIV-1NL4-3): 188/−36.5 | Antiviral Activity Synergy volume (HIV-1NL4-3): 188/−36.5

O=C1Nc2ccc(Cl)cc2[C@@](C#CC2CC2)(C(F)(F)F)O1 [Efavirenz]
Antiviral Activity Antagonism volume (HIV-1NL4-3; [2]): −5.92 | Antiviral Activity Synergy volume (HIV-1NL4-3; [2]): 79.0
